Reference: PubChem BioAssay AID1626 (SRMLSC, 2009)

Test system: M. tuberculosis H37Rv growth inhibition
Experiment: M. tuberculosis H37Rv growth inhibitors, H37Rv strain (AID 1626)
Conditions: for IC90: measured here: IC90 against H37Rv; for CC50: measured here: Vero cell cytotoxicity

| SMILES | IC50 | IC90 | CC50 |
| --- | --- | --- | --- |
| O=C(CCl)Nc1ccccc1C(=O)NCc1ccccc1 | 8.16 µM | 21.2 µM | 24.4 µM |
| Cc1nc(NC(=O)c2ccccc2)sc1Cc1ccc2c(c1)OCO2 | 60.5 µM | > 100 µM | > 40 µM |
| Cc1ccc(OCCCc2c(C)n[nH]c2C)cc1 | 16.8 µM | > 100 µM |  |
| COCC(=O)Nc1ccc(Br)c(C)c1 |  | > 100 µM |  |
| COc1ccc(N/C=C2\CCc3ccccc3C2=O)cc1 |  | > 100 µM | > 40 µM |
| Cc1[nH]n(-c2ccccc2)c(=O)c1N=Nc1nccs1 | 2.8 µM | 5.14 µM | 29.5 µM |
| COC(=O)CSc1ccc2c(N)c(C(=O)OC)sc2c1 | 1.68 µM | 2.82 µM |  |
| COc1ccc(CNc2nc3nc4c(c(=O)n3[nH]2)CCC4)cc1 | 1.09 µM | > 100 µM |  |
| COc1ccc(NC(=O)c2ccc(-c3ccc([N+](=O)[O-])cc3)o2)cc1 |  | > 100 µM |  |
| CC1(C)OC(=O)C(=Cc2ccc[nH]2)C(=O)O1 | < 0.195 µM | > 100 µM |  |
| O=C(/C=C/c1cccs1)Nc1cccc(NC(=O)/C=C/c2cccs2)n1 | 10.4 µM | > 100 µM | 28 µM |
| O=C(Nc1cccc(NC(=O)c2cccs2)c1)c1ccc([N+](=O)[O-])o1 | 7.97 µM | 14.3 µM | 13.8 µM |
| c1ccc(-c2cc3c(NCC4COc5ccccc5O4)ncnc3s2)cc1 (centres undefined) |  | > 100 µM | > 40 µM |
| Cc1cc2ncn(/N=C/c3ccc([N+](=O)[O-])s3)c2cc1C | < 0.195 µM | 0.282 µM | 8.74 µM |
| Cc1ccc(S/C=C\C(=O)c2ccccc2)cc1 | 5.51 µM | 8.53 µM |  |
| Cc1cc(-c2ccc(/C=N/n3cnnc3)o2)ccc1Cl |  | > 100 µM |  |
| Cc1ccc(OC(=O)c2ccc(Br)o2)cc1 | 65.4 µM | > 100 µM |  |
| O=C(Nc1nnc(-c2ccc(F)cc2)o1)c1cc(Cl)sc1Cl | < 0.195 µM | 2.86 µM | 18.2 µM |

| SMILES | IC50 | IC90 | CC50 |
| --- | --- | --- | --- |
| Cc1ccc(Nc2cc(C)nn2-c2nc(C)cc(=O)[nH]2)cc1 | < 0.391 µM | 5.56 µM | 1.95 µM |
| Cc1cc(NCc2ccccn2)n2ncc(-c3ccccc3)c2n1 | 4.82 µM | 7.62 µM | 31.4 µM |
| O=C(/C=C/c1cccc([N+](=O)[O-])c1)NC1CC2CCC1C2 (centres undefined) | 6.04 µM | > 100 µM |  |
| O=C1N=C(N2CCOCC2)S/C1=C/c1ccc(-c2ccc(F)cc2)o1 |  | > 100 µM |  |
| COc1ccc2nc(C)cc(SCC(=O)OC(C)C)c2c1 | 9.36 µM | 13.8 µM |  |
| Cc1nc2ccc(NC(=O)C(F)(F)F)cc2o1 |  | > 100 µM |  |
| Nc1nnc(Sc2ncccc2[N+](=O)[O-])s1 | 9.58 µM | 12.9 µM |  |
| C=CCn1c(SCc2csc(-c3ccc(C)cc3)n2)nnc1-c1ccccc1OC | 16.5 µM | 23.8 µM | > 40 µM |
| COC(=O)CC(=O)N1CCN(c2ccc(Cl)c(Cl)c2)CC1 | 11.9 µM | 25.2 µM |  |
| CC(=O)c1cccc(NC(=O)/C=C/c2ccc([N+](=O)[O-])s2)c1 | 6.51 µM | 57.4 µM | > 40 µM |
| CCCCOC(=O)c1ccc(NC(=O)C(=O)NCc2cccnc2)cc1 | 22.1 µM | > 100 µM |  |
| COc1ccc(N=C2C(=O)N3CCCc4cccc2c43)cc1 |  | > 100 µM |  |
| CC(C)c1ccc(NC(=O)c2snc3ccc(Cl)cc23)cc1 | 3.89 µM | > 100 µM | > 40 µM |
| Cc1cccc(OCCCCCn2ccnc2)c1C | 10.6 µM | 11.6 µM | > 40 µM |
| CCOC(=O)CSc1nnc(-c2cccc(Br)c2)o1 | 0.486 µM | 15.2 µM |  |
| Nc1nc(Nc2cccc(Cl)c2)nc(NCc2ccco2)c1[N+](=O)[O-] | 29.9 µM | > 100 µM | > 40 µM |
| COc1cccc(C(=O)/C=C/c2ccc(N3CCCCC3)c([N+](=O)[O-])c2)c1 | 29.4 µM | > 100 µM | 27.2 µM |
